Source: patent publication US20220202810A1 (Lake O'Hara LLC, priority 2020, published 2022)
Read-outs that look alike come from different tables or passages of the source.

What was measured:
[1] = cited from earlier work
[2] = PBPK modeling of schizophrenia patients, FDA label and modified dosing regimens; parameters: species or system human; conditions: for Days Reduced to Reach Pharmacokinetic Endpoints: EC50 / Days Reduced to Reach Pharmacokinetic Endpoints: EC80 / Days Reduced to Reach Pharmacokinetic Endpoints: Steady State: modified regimen of Table F vs FDA label, Obese
Excerpt: PBPK Modeling of Patients Dosed with Brexpiprazole According to the FDA Label
Although the PBPK modeling was based on the dosing regimen for schizophrenia according to the FDA label (REXULTI®, 3/2020), pharmacokinetic parameters are dose-dependent and expected to be similar in MDD.
In order to simulate brexpiprazole under various conditions, a whole-body PBPK model was constructed to capture the drug's kinetics in major tissues. Model tissue compartments included adipose, bone, brain, large intestine, small intestine, heart, kidney, liver, lung, muscle, spleen, stomach, and skin tissues, as well as venous and arterial blood compartments. In order to accurately capture first-pass clearance effects on the drug, the model also included correct representation of the gastrointestinal tract organs and the liver. […] Drug distribution into each tissue compartment was modeled assuming perfusion-limited kinetics, with partitioning into tissue described by a partition coefficient (Kp) estimated using methods described by Poulin and Theil (2002). Brexpiprazole-specific biochemical parameters such as the log of octanol:water partition coefficient (logP), negative log acid dissociation constant (pKa), fraction unbound in the plasma (fup), blood:plasma concentration ratio (BP), and clearance were obtained from literature; additional physiochemical properties used to calculate Kps were obtained via DrugBank. […] Simulations were carried out in a virtual population of 500 normal-weight and 500 obese individuals with age- and sex-specific physiological parameters (i.e. tissue flows and volumes) sampled from the National Health and Nutrition Examination Survey (NHANES) dataset.
PBPK Modeling of Schizophrenia Patients Treated with Higher Doses According to Modified Methods
A modified dosing regimen was developed so that obese and CYP2D6 PM patients reach therapeutic levels earlier (Table F). […] On day 8, patients returned to administering the recommended dose once daily. […] On day 15, patients returned to administering the recommended dose once daily.

[3] = cited from earlier work; remark: listed apart in the source
[4] = brexpiprazole patients; cited from earlier work

In the case of O=c1ccc2ccc(OCCCCN3CCN(c4cccc5sccc45)CC3)cc2[nH]1 [Brexpiprazole, 7-{4-[4-(1-Benzothiophen-4-yl)piperazin-1-yl]butoxy}quinolin-2(1H)-one], the “decrease of baseline clearance by CYP2D6 PM status” value ([1]; CYP2D6 PM) is given as ~30%, the “brexpiprazole clearance due to CYP3A4” value ([1]; based on the literature) is given as 46.7% and the “clearance due to other routes” value ([1]; based on the literature) is given as 10%. The “remaining clearance due to CYP2D6” value ([1]; based on the literature) was 43.3%, the “effect of weight on the pharmacokinetics of brexpiprazole” value ([1]; previous studies, no patients with BMI>35 kg/m^2) was “less than 20%” and the renal clearance ([1]; share of brexpiprazole clearance) was ~1%. The “Days Reduced to Reach Pharmacokinetic Endpoints: EC50” value ([2]; EM) was 3 days, the “Days Reduced to Reach Pharmacokinetic Endpoints: EC80” value ([2]; EM) was 3 days and the “Days Reduced to Reach Pharmacokinetic Endpoints: Steady State” value ([2]; EM) was -4 days. The “Days Reduced to Reach Pharmacokinetic Endpoints: EC50” value ([2]; PM) was 2 days, the “Days Reduced to Reach Pharmacokinetic Endpoints: EC80” value ([2]; PM) was 5 days and the “Days Reduced to Reach Pharmacokinetic Endpoints: Steady State” value ([2]; PM) was -29 days. The “time to reach therapeutic concentrations vs once daily dosing” value ([2]; schizophrenia, normal-weight CYP2D6 PM, Modified Dosing Regimen 3) was “three days faster”, the “time to reach therapeutic concentrations vs FDA label dosing” value ([2]; schizophrenia, obese CYP2D6 EM, twice the starting and recommended daily doses for the first 7 days) was “three days faster” and the “time to reach therapeutic concentrations vs once daily dosing” value ([2]; schizophrenia, obese CYP2D6 PM, twice the starting and recommended daily doses for the first 14 days) was “five days faster”. For the same compound, the “AUC Observed” value ([3]; NDA Study1, IV, 0.25 mg) was 172 ng·h/mL, the “Cmax Observed” value ([3]; NDA Study1, IV, 0.25 mg) was 4.73 ng/mL and the “Tmax Observed” value ([3]; NDA Study1, IV, 0.25 mg) was 1 h. For the same compound, the “AUC Observed” value ([3]; NDA Study1, PO, 0.2 mg) was 123 ng·h/mL, the “Cmax Observed” value ([3]; NDA Study1, PO, 0.2 mg) was 2.62 ng/mL and the “Tmax Observed” value ([3]; NDA Study1, PO, 0.2 mg) was 2 h. The “AUC Observed” value ([3]; NDA Study1, PO, 0.5 mg) was 287 ng·h/mL, the “Cmax Observed” value ([3]; NDA Study1, PO, 0.5 mg) was 6.64 ng/mL and the “Tmax Observed” value ([3]; NDA Study1, PO, 0.5 mg) was 4 h. For the same compound, the “AUC Observed” value ([3]; NDA Study1, PO, 1 mg) was 636 ng·h/mL, the “Cmax Observed” value ([3]; NDA Study1, PO, 1 mg) was 11.70 ng/mL and the “Tmax Observed” value ([3]; NDA Study1, PO, 1 mg) was 6 h. For the same compound, the “AUC Observed” value ([3]; NDA Study1, PO, 2 mg) was 1690 ng·h/mL, the “Cmax Observed” value ([3]; NDA Study1, PO, 2 mg) was 22.10 ng/mL and the “Tmax Observed” value ([3]; NDA Study1, PO, 2 mg) was 6 h. The “AUC Observed” value ([3]; NDA Study2, PO, 2 mg) was 2160 ng·h/mL, the “Cmax Observed” value ([3]; NDA Study2, PO, 2 mg) was 24.60 ng/mL and the “Tmax Observed” value ([3]; NDA Study2, PO, 2 mg) was 4 h. For the same compound, the “AUC Observed” value ([3]; NDA Study2, PO, 4 mg) was 2760 ng·h/mL, the “Cmax Observed” value ([3]; NDA Study2, PO, 4 mg) was 47.20 ng/mL and the “Tmax Observed” value ([3]; NDA Study2, PO, 4 mg) was 6 h. The “AUC Observed” value ([3]; NDA Study2, PO, 6 mg) was 5230 ng·h/mL, the “Cmax Observed” value ([3]; NDA Study2, PO, 6 mg) was 71.10 ng/mL and the “Tmax Observed” value ([3]; NDA Study2, PO, 6 mg) was 6 h. The “AUC Observed” value ([3]; NDA Study2, PO, 8 mg) was 7920 ng·h/mL, the “Cmax Observed” value ([3]; NDA Study2, PO, 8 mg) was 79.20 ng/mL and the “Tmax Observed” value ([3]; NDA Study2, PO, 8 mg) was 6 h. The akathisia rates [4] was “dose-dependent”.
